# Test results as given in PMC11407620, “Repurposing auranofin and meclofenamic acid as energy-metabolism inhibitors and anti-cancer drugs” (PLOS ONE, 2024).
# Tests used:
# Cervix HeLa cells = test: Cell proliferation, 24 h drug exposure; assay type: cell-based, human
# Description: (§1) All metastatic (breast MDA-MB231, MDA-MB468, cervix HeLa, prostate PC3, colorectal HCT116, COLO205, glioblastoma U373), low-metastatic (breast MCF-7) cancer and non-cancer (fibroblast 3T3, cardiomyocytes H9C2) cell lines (American Type Culture Collection, Rockville, MD, USA) used in this study were cultured in Petri dishes in 20 mL of Dulbecco’s Modified Eagle’s Medium (DMEM, Sigma, MO, USA) supplemented with 10% fetal bovine serum (Biowest, Mexico) and 10,000 U penicillin/streptomycin (Sigma-Aldrich, MO, USA). […] For growth and maintenance, cells were incubated in 5% CO2/95% air at 37°C and kept until 80–90% of confluence was reached. Then, cells were harvested, washed by centrifugation and resuspended in Krebs-Ringer buffer (KR, 125 mM NaCl, 5 mM KCl, 25 mM Hepes, 1 mM MgCl2, 1 mM KH2PO4, 1.4 mM CaCl2, pH 7.4) for further use. For experimentation, cancer cells (3–5 x 10^6 cells) were cultured in DMEM (with 25 mM glucose) for 24 h in the absence of drugs. Afterwards, old-medium was replaced with fresh DMEM medium (with 25 mM glucose) in the absence (control, non-treated cells) or in the presence of logarithmic concentrations of Aur and MA for 24 h more, under the same culture conditions described above. Viability of cultured cells was determined by the trypan blue exclusion assay. The protein concentration was determined by the Lowry method.
# For cell proliferation in the presence of drugs, cancer cells (20 x 10^3 cells/well) were grown in 96-well plates containing DMEM (Sigma-Aldrich) plus 10% bovine fetal serum for 24 h. […] The effect of these drugs on cell proliferation was determined in 96-well plates by the MTT (3-[4,5-dimethyl-thiazol-2-yl]-2,5-diphenyltetrazolium bromide) assay. The viability of cancer cells was > 95% after treatment with drugs.
# [1] = system: H9C2 mouse cardiomyocytes; test: Cell proliferation, 24 h drug exposure (non cancer cells); assay type: cell-based; conditions: read-out: IC50 for proliferation cell rate
# Description: as §1
# (§2) For cell proliferation in the presence of drugs, cancer cells (20 x 10^3 cells/well) were grown in 96-well plates containing DMEM (Sigma-Aldrich) plus 10% bovine fetal serum for 24 h. Afterwards, Aur or MA (0.01, 0.1, 10 and 100 μM) were added to the cell cultures and incubated for additional 24 h. The effect of these drugs on cell proliferation was determined in 96-well plates by the MTT (3-[4,5-dimethyl-thiazol-2-yl]-2,5-diphenyltetrazolium bromide) assay. The viability of cancer cells was > 95% after treatment with drugs.
# 3T3 mouse fibroblasts = test: as above; assay type: cell-based; conditions: 3T3 mouse fibroblasts (non cancer), read-out: IC50 for proliferation cell rate
# Description: as §1, §2
# [2] = system: AS-30D hepatoma mitochondria; test: Oxygen consumption of isolated mitochondria; assay type: biochemical, rat; design: Net State 3 oxygen consumption rate: unit not given here; conditions: for Net State 3 (State 3 –pseudoState 4) oxygen consumption rate / Pseudo State 4 oxygen consumption rate / RC (State 3/ State 4), respiratory control / State 3 oxygen consumption rate / State 4 oxygen consumption rate / Net State 3 oxygen consumption rate / RC (State 3/ State 4): Hepatoma mitochondria
# Description: AS-30D hepatocarcinoma cells were propagated in the peritoneal cavity of 200–250 g weight female Wistar rats by intra-peritoneal inoculation of 3 mL of a cellular suspension containing approximately 4 × 10^8 cells/mL [36]. After 5–6 days, the rats were sacrificed by cervical dislocation and AS-30D ascites liquid was extracted from peritoneal area with a sterile syringe and collected in 50 mL-plastic tubes. The hepatoma cells were harvested by centrifugation and washed once by centrifugation in KR buffer. For mitochondria isolation from AS-30D hepatoma, cells were permeabilized with digitonin (Sigma Aldrich, CA, USA) at 10–40 μg/mg cellular protein concentration.
# (§3) Respiration of AS-30D, liver and heart mitochondria (1 mg protein/mL) was assayed oxygraphically with a Clark-type O2 electrode in KME (120 mM KCl, 20 mM Mops, 1 mM EGTA) buffer pH 7.2 plus 2 mM KH2PO4, and different oxidizable substrates (as indicated in Results). For state 3 respiration, 600 nmol ADP were added. Mitochondria were incubated at 37°C with Aur and MA for 30–60 s before substrates were added. At the end of each respiratory measurement, dithionite was added to get the chemical zero oxygen signal.
# (§4) Isolated mitochondria (1mg protein/mL) were incubated in KME buffer (120 mM KCl, 20 mM MOPS, 1 mM EGTA) pH 7.20 plus 2 mM KH2PO4 and the indicated oxidizable substrates. For state 3 (ADP-stimulated) respiration, 300-600 nmol ADP were added. RC, respiratory control; n=3. To get the maximal reduction of molecular oxygen (zero oxygen concentration), sodium dithionite (Na2O4S2) was added at the end of each measurement.
# Rat Liver Mitochondria = test: Oxygen consumption of isolated mitochondria; assay type: biochemical; conditions: for Net State 3 oxygen consumption rate / Pseudo State 4 oxygen consumption rate / RC, respiratory control / State 3 oxygen consumption rate / State 4 oxygen consumption rate / RC: Rat Liver Mitochondria
# Description: Rat liver (RLM) and heart (RHM) mitochondria were isolated as described previously by differential centrifugation.
# as §3, §4
# [3] = 5 mM Glutamate/0.1 mM Malate, 10 μM Aur
# [4] = 5 mM Glutamate/0.1 mM Malate, 25 μM Aur
# [5] = 5 mM Glutamate/0.1 mM Malate, 50 μM Aur
# [6] = 5 mM Glutamate/0.1 mM Malate, 100 μM Aur
# [7] = Succinate 0.5 mM + Rotenone 2 µM, 10 µM Aur
# [8] = Succinate 0.5 mM + Rotenone 2 µM, 25 µM Aur
# [9] = Succinate 0.5 mM + Rotenone 2 µM, 50 µM Aur
# [10] = Succinate 0.5 mM + Rotenone 2 µM, 100 µM Aur
# [11] = 5 mM Glutamate/5 mM Malate, 10 μM Aur
# [12] = 5 mM Glutamate/5 mM Malate, 25 μM Aur
# [13] = 5 mM Glutamate/5 mM Malate, 50 μM Aur
# [14] = 5 mM Glutamate/5 mM Malate, 100 μM Aur
compound,measurement,setting,value
"CC(=O)OC[C@H]1O[C@@H]([S-])[C@H](OC(C)=O)[C@@H](OC(C)=O)[C@@H]1OC(C)=O.CCP(CC)CC.[Au+] [Aur, [1-(thio-κS)-β-D-glucopyranose-2,3,4,6-tetraacetyl] (triethylphosphine)-gold]",IC50,"Cervix HeLa cells; Cervix HeLa, 24 h, read-out: IC50 for proliferation cell rate",1700 ± 400 nM
same,effect on proliferation after shorter exposure,"Cervix HeLa cells; HeLa cells, 12 h exposure",< 15%
same,TI ratio (3T3/ cancer cells),Cervix HeLa cells; IC50 3T3 / IC50 HeLa,25
same,TI ratio (H9C2/cancer cells),Cervix HeLa cells; IC50 H9C2 / IC50 HeLa,46
same,IC50,[1],78 ± 15 µM
same,IC50,3T3 mouse fibroblasts,42 ± 17 µM
same,Net State 3 (State 3 –pseudoState 4) oxygen consumption rate,[2]; [3],91.5 ± 8 nmol O2 min^-1 mg protein^-1
same,Pseudo State 4 oxygen consumption rate,[2]; [3],33.5 ± 2 nmol O2 min^-1 mg protein^-1
same,"RC (State 3/ State 4), respiratory control",[2]; [3],2.8 ± 0.5
same,State 3 oxygen consumption rate,[2]; [3],125 ± 9 nmol O2 min^-1 mg protein^-1
same,State 4 oxygen consumption rate,[2]; [3],44 ± 6 nmol O2 min^-1 mg protein^-1
same,Net State 3 (State 3 –pseudoState 4) oxygen consumption rate,[2]; [4],78 ± 29 nmol O2 min^-1 mg protein^-1
same,Pseudo State 4 oxygen consumption rate,[2]; [4],37 ± 5 nmol O2 min^-1 mg protein^-1
same,"RC (State 3/ State 4), respiratory control",[2]; [4],2.6 ± 0.5
same,State 3 oxygen consumption rate,[2]; [4],114± 31 nmol O2 min^-1 mg protein^-1
same,State 4 oxygen consumption rate,[2]; [4],43 ± 3 nmol O2 min^-1 mg protein^-1
same,Net State 3 (State 3 –pseudoState 4) oxygen consumption rate,[2]; [5],80 ± 39 nmol O2 min^-1 mg protein^-1
same,Pseudo State 4 oxygen consumption rate,[2]; [5],52.5 ± 11 nmol O2 min^-1 mg protein^-1
same,"RC (State 3/ State 4), respiratory control",[2]; [5],2.2 ± 0.5
same,State 3 oxygen consumption rate,[2]; [5],133± 46 nmol O2 min^-1 mg protein^-1
same,State 4 oxygen consumption rate,[2]; [5],74 ± 28 nmol O2 min^-1 mg protein^-1
same,Net State 3 (State 3 –pseudoState 4) oxygen consumption rate,[2]; [6],68 ± 41 nmol O2 min^-1 mg protein^-1
same,Pseudo State 4 oxygen consumption rate,[2]; [6],67 ± 21.5 nmol O2 min^-1 mg protein^-1
same,"RC (State 3/ State 4), respiratory control",[2]; [6],1.5 ± 0.4
same,State 3 oxygen consumption rate,[2]; [6],125 ± 61 nmol O2 min^-1 mg protein^-1
same,State 4 oxygen consumption rate,[2]; [6],79 ± 30 nmol O2 min^-1 mg protein^-1
same,Net State 3 oxygen consumption rate,[2]; [7],63 ± 13
same,Pseudo State 4 oxygen consumption rate,[2]; [7],80 ± 10
same,RC (State 3/ State 4),[2]; [7],1.9 ± 0.5
same,State 3 oxygen consumption rate,[2]; [7],143 ± 18
same,State 4 oxygen consumption rate,[2]; [7],73 ± 7.5
same,Net State 3 oxygen consumption rate,[2]; [8],56.5 ± 21
same,Pseudo State 4 oxygen consumption rate,[2]; [8],90 ± 31
same,RC (State 3/ State 4),[2]; [8],1.7 ± 0.1
same,State 3 oxygen consumption rate,[2]; [8],147± 23
same,State 4 oxygen consumption rate,[2]; [8],84 ± 15
same,Net State 3 oxygen consumption rate,[2]; [9],58.3 ± 63
same,Pseudo State 4 oxygen consumption rate,[2]; [9],83 ± 23
same,RC (State 3/ State 4),[2]; [9],1.9 ± 0.3
same,State 3 oxygen consumption rate,[2]; [9],141.5± 65
same,State 4 oxygen consumption rate,[2]; [9],70 ± 28
same,Net State 3 oxygen consumption rate,[2]; [10],26 ± 46
same,Pseudo State 4 oxygen consumption rate,[2]; [10],82 ± 34
same,RC (State 3/ State 4),[2]; [10],1.8 ± 0.4
same,State 3 oxygen consumption rate,[2]; [10],104 ± 24
same,State 4 oxygen consumption rate,[2]; [10],56.5 ± 7
same,increase of state 4 respiration rates (times),"[2]; hepatoma mitochondria, GM",2.3–2.4 times
same,inhibition of state 3 respiration rates,Rat Liver Mitochondria; RLM,20–54%
same,increase of state 4 respiration rates (times),"Rat Liver Mitochondria; RLM, GM",1.8–1.9 times
same,Net State 3 oxygen consumption rate,Rat Liver Mitochondria; [11],123.5 ± 59 nmol O2 min^-1 mg protein^-1
same,Pseudo State 4 oxygen consumption rate,Rat Liver Mitochondria; [11],27.5 ± 3 nmol O2 min^-1 mg protein^-1
same,"RC, respiratory control",Rat Liver Mitochondria; [11],8 ± 1
same,State 3 oxygen consumption rate,Rat Liver Mitochondria; [11],151 ± 61.5 nmol O2 min^-1 mg protein^-1
same,State 4 oxygen consumption rate,Rat Liver Mitochondria; [11],18 ± 5 nmol O2 min^-1 mg protein^-1
same,Net State 3 oxygen consumption rate,Rat Liver Mitochondria; [12],62 nmol O2 min^-1 mg protein^-1
same,Pseudo State 4 oxygen consumption rate,Rat Liver Mitochondria; [12],27 (2) nmol O2 min^-1 mg protein^-1
same,"RC, respiratory control",Rat Liver Mitochondria; [12],6 (2)
same,State 3 oxygen consumption rate,Rat Liver Mitochondria; [12],89 (2) nmol O2 min^-1 mg protein^-1
same,State 4 oxygen consumption rate,Rat Liver Mitochondria; [12],15 (2) nmol O2 min^-1 mg protein^-1
same,Net State 3 oxygen consumption rate,Rat Liver Mitochondria; [13],48 nmol O2 min^-1 mg protein^-1
same,Pseudo State 4 oxygen consumption rate,Rat Liver Mitochondria; [13],30.5 (2) nmol O2 min^-1 mg protein^-1
same,"RC, respiratory control",Rat Liver Mitochondria; [13],5.5 (2)
same,State 3 oxygen consumption rate,Rat Liver Mitochondria; [13],78.5 (2) nmol O2 min^-1 mg protein^-1
same,State 4 oxygen consumption rate,Rat Liver Mitochondria; [13],16 (2) nmol O2 min^-1 mg protein^-1
same,Net State 3 oxygen consumption rate,Rat Liver Mitochondria; [14],25 nmol O2 min^-1 mg protein^-1
same,Pseudo State 4 oxygen consumption rate,Rat Liver Mitochondria; [14],48 (2) nmol O2 min^-1 mg protein^-1
same,"RC, respiratory control",Rat Liver Mitochondria; [14],3 (2)
same,State 3 oxygen consumption rate,Rat Liver Mitochondria; [14],73 (2) nmol O2 min^-1 mg protein^-1
same,State 4 oxygen consumption rate,Rat Liver Mitochondria; [14],26 (2) nmol O2 min^-1 mg protein^-1
same,Net State 3 oxygen consumption rate,Rat Liver Mitochondria; [7],116 (2)
same,Pseudo State 4 oxygen consumption rate,Rat Liver Mitochondria; [7],33 (2)
same,RC,Rat Liver Mitochondria; [7],5.4 (2)
same,State 3 oxygen consumption rate,Rat Liver Mitochondria; [7],150 (2)
same,State 4 oxygen consumption rate,Rat Liver Mitochondria; [7],68 (2)
same,Net State 3 oxygen consumption rate,Rat Liver Mitochondria; [8],88 (2)
same,Pseudo State 4 oxygen consumption rate,Rat Liver Mitochondria; [8],73 (2)
same,RC,Rat Liver Mitochondria; [8],4.8 (2)
same,State 3 oxygen consumption rate,Rat Liver Mitochondria; [8],161 (2)
same,State 4 oxygen consumption rate,Rat Liver Mitochondria; [8],39.5 (2)
same,Net State 3 oxygen consumption rate,Rat Liver Mitochondria; [9],36.5 (2)
same,Pseudo State 4 oxygen consumption rate,Rat Liver Mitochondria; [9],63.5 (2)
same,RC,Rat Liver Mitochondria; [9],2.3 (2)
same,State 3 oxygen consumption rate,Rat Liver Mitochondria; [9],95.5 (2)
same,State 4 oxygen consumption rate,Rat Liver Mitochondria; [9],40.5 (2)
same,Net State 3 oxygen consumption rate,Rat Liver Mitochondria; [10],20 (2)
same,Pseudo State 4 oxygen consumption rate,Rat Liver Mitochondria; [10],59 (2)
same,RC,Rat Liver Mitochondria; [10],2.5 (2)
same,State 3 oxygen consumption rate,Rat Liver Mitochondria; [10],64 (2)
same,State 4 oxygen consumption rate,Rat Liver Mitochondria; [10],56 (2)
